Our source for the EC50 values is US12351580B2, “NLRP3 modulators” (Innate Tumor Immunity, Inc., priority 2017, dated 2025).

The target of one test is T1, TLR7 (Homo sapiens, UniProt Q9NYK1).
T1 construct: host or cells: HEK-Blue cells (human HEK) co-expressing TLR7 and an NF-kB/AP1-inducible SEAP reporter
T1 sequence (Q9NYK1 27-1049): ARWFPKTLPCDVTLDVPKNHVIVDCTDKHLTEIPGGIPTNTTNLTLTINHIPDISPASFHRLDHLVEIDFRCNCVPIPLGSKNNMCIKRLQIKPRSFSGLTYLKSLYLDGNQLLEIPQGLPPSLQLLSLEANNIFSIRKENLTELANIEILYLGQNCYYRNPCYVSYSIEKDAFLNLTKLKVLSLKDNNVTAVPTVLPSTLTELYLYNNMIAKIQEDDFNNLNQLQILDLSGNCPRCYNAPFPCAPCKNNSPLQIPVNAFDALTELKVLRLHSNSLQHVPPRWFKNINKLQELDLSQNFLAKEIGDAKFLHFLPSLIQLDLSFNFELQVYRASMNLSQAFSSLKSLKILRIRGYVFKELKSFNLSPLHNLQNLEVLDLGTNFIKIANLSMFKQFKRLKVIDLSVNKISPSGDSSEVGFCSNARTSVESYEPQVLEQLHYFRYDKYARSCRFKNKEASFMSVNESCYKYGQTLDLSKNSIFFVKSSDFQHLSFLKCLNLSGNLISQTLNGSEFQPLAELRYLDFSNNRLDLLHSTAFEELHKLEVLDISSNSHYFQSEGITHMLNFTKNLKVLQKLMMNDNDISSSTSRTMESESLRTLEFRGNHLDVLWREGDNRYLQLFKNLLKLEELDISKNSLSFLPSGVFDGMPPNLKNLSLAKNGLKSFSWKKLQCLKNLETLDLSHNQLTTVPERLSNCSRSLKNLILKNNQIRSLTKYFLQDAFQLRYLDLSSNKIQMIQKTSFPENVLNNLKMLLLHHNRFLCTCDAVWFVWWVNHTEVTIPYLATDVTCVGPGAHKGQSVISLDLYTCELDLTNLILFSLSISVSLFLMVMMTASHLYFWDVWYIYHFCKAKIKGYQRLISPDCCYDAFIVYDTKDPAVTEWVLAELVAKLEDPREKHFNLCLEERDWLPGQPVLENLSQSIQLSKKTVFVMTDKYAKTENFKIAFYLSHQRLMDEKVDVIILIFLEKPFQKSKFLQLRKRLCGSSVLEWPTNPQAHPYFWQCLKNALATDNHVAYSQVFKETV
Nature of the test: In vitro human TLR7 binding reporter assay (HEK-Blue, NF-kB/AP1-inducible SEAP). The format is cell-based. The settings on record: activity range symbols. In outline:
(§1)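 Reporter cells are plated at 15,000 per well and rested 24 h. Next day, test compounds or DMSO are dispensed, followed by 18 h incubation at 37 °C, 5% CO2.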
(In general: A reporter such as luciferase makes a cellular process visible.)

The target in the next test is T2, TLR8 (Homo sapiens, UniProt Q9NR97).
T2 construct: host or cells: HEK-Blue cells (human HEK) co-expressing TLR8 and an NF-kB/AP1-inducible SEAP reporter
T2 sequence (Q9NR97 27-1041): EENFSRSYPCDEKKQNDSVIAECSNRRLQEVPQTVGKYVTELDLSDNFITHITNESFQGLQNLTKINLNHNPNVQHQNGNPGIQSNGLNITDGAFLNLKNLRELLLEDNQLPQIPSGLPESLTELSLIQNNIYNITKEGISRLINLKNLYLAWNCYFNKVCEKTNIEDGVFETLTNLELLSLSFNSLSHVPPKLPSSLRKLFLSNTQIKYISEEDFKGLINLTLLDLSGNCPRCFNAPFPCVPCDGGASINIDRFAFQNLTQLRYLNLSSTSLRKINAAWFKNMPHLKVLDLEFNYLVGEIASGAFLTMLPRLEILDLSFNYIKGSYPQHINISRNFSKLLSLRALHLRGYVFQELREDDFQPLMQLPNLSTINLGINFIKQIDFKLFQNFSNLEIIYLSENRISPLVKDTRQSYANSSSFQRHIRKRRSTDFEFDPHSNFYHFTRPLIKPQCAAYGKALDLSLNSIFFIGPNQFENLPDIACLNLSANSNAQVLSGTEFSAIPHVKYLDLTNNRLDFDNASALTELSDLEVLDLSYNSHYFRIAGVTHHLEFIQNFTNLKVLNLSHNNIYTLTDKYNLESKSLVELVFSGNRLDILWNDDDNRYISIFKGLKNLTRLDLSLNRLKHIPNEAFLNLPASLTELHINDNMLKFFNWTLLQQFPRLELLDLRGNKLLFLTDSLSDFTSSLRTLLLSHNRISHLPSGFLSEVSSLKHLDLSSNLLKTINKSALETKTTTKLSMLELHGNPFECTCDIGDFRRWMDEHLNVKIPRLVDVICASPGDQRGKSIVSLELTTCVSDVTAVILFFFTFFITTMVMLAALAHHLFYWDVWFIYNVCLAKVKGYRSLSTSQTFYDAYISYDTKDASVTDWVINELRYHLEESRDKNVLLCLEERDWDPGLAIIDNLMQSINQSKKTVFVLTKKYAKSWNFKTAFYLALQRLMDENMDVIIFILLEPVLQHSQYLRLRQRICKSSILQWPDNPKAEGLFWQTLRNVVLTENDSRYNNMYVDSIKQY
The experiment in a line: In vitro human TLR8 binding reporter assay (HEK-Blue, NF-kB/AP1-inducible SEAP). The following applies: activity range symbols. Format: cell-based. In outline: as §1

For the molecule `Nc1nc2ccccc2c2[nH]c(CN3CCCC3=O)nc12` [Compound 278], the EC50 was 20 to 100 µM at TLR7 and greater than 100 µM at TLR8.

Turning to `Nc1nc2cc(-c3cccnc3)ccc2c2[nH]c(CN3CCCC3=O)nc12` [Compound 279, 1-[(4-amino-7-pyridin-3-yl-1H-imidazo[4,5-c]quinolin-2-yl)methyl]pyrrolidin-2-one], the EC50 at TLR7 and at TLR8 was greater than 100 µM throughout.

Regarding `Nc1nc2cc(-c3ccccc3)ccc2c2[nH]c(CN3CCCC3=O)nc12` [Compound 280, 1-[(4-amino-7-phenyl-1H-imidazo[4,5-c]quinolin-2-yl)methyl]pyrrolidin-2-one], the concentration giving a half-maximal response (EC50) at TLR7 and at TLR8 was greater than 100 µM throughout.

As for `Nc1nc2cc(-c3ccccc3Cl)ccc2c2[nH]c(CN3CCCC3=O)nc12` [Compound 281, 1-[[4-amino-7-(2-chlorophenyl)-1H-imidazo[4,5-c]quinolin-2-yl]methyl]pyrrolidin-2-one], the EC50 on TLR7 and on TLR8 was greater than 100 µM in each case.

As for `Cc1ccccc1-c1ccc2c(c1)nc(N)c1nc(CN3CCCC3=O)[nH]c12` [Compound 282, 1-[[4-amino-7-(2-methylphenyl)-1H-imidazo[4,5-c]quinolin-2-yl]methyl]pyrrolidin-2-one], the EC50 on TLR7 and on TLR8 was greater than 100 µM in each case.

On to `COc1ccccc1-c1ccc2c(c1)nc(N)c1nc(CN3CCCC3=O)[nH]c12` [Compound 283, 1-[[4-amino-7-(2-methoxyphenyl)-1H-imidazo[4,5-c]quinolin-2-yl]methyl]pyrrolidin-2-one], for which the EC50 on TLR7 and at TLR8 was greater than 100 µM throughout.

Regarding `Nc1nc2cc(-c3ccccc3F)ccc2c2[nH]c(CN3CCCC3=O)nc12` [Compound 284, 1-[[4-amino-7-(2-fluorophenyl)-1H-imidazo[4,5-c]quinolin-2-yl]methyl]pyrrolidin-2-one], the EC50 on TLR7 and at TLR8 was greater than 100 µM in each case.

For `Nc1nc2cc(-c3cccc(Cl)c3)ccc2c2[nH]c(CN3CCCC3=O)nc12` [Compound 285, 1-[[4-amino-7-(3-chlorophenyl)-1H-imidazo[4,5-c]quinolin-2-yl]methyl]pyrrolidin-2-one], the EC50 at TLR7 and on TLR8 was greater than 100 µM throughout.

Consider `Cc1cccc(-c2ccc3c(c2)nc(N)c2nc(CN4CCCC4=O)[nH]c23)c1` [Compound 286, 1-[[4-amino-7-(3-methylphenyl)-1H-imidazo[4,5-c]quinolin-2-yl]methyl]pyrrolidin-2-one], for which the EC50 on TLR7 and on TLR8 was greater than 100 µM each time.

As to `COc1cccc(-c2ccc3c(c2)nc(N)c2nc(CN4CCCC4=O)[nH]c23)c1` [Compound 287, 1-[[4-amino-7-(3-methoxyphenyl)-1H-imidazo[4,5-c]quinolin-2-yl]methyl]pyrrolidin-2-one], the EC50 on TLR7 and on TLR8 was greater than 100 µM throughout.

For `N#Cc1cccc(-c2ccc3c(c2)nc(N)c2nc(CN4CCCC4=O)[nH]c23)c1` [Compound 288, 3-[4-amino-2-[(2-oxopyrrolidin-l-yl)methyl]-1H-imidazo[4,5-c]quinolin-7-yl]benzonitrile], the EC50 at TLR7 and on TLR8 was greater than 100 µM in each case.

Turning to `Nc1nc2cc(-c3cccc(F)c3)ccc2c2[nH]c(CN3CCCC3=O)nc12` [Compound 289, 1-[[4-amino-7-(3-fluorophenyl)-1H-imidazo[4,5-c]quinolin-2-yl]methyl]pyrrolidin-2-one], the EC50 at TLR7 and at TLR8 was greater than 100 µM in each case.

Take `Cc1ccc(-c2ccc3c(c2)nc(N)c2nc(CN4CCCC4=O)[nH]c23)cc1` [Compound 291, 1-[[4-amino-7-(4-methylphenyl)-1H-imidazo[4,5-c]quinolin-2-yl]methyl]pyrrolidin-2-one]: the EC50 at TLR7 and on TLR8 was greater than 100 µM throughout.

`Nc1nc2cc(Br)ccc2c2[nH]c(CN3CCCC3=O)nc12` [Compound 294, 1-[(4-amino-7-bromo-1H-imidazo[4,5-c]quinolin-2-yl)methyl]pyrrolidin-2-one]: the EC50 was 20 to 100 µM on TLR7 and greater than 100 µM at TLR8.

`Nc1nc2cc(-n3cccn3)ccc2c2[nH]c(CN3CCCC3=O)nc12` [Compound 295, 1-[(4-amino-7-pyrazol-1-yl-1H-imidazo[4,5-c]quinolin-2-yl)methyl]pyrrolidin-2-one]: the EC50 on TLR7 and on TLR8 was greater than 100 µM throughout.

For `Cc1cnn(-c2ccc3c(c2)nc(N)c2nc(CN4CCCC4=O)[nH]c23)c1` [Compound 296, 1-[[4-amino-7-(4-methylpyrazol-1-yl)-1H-imidazo[4,5-c]quinolin-2-yl]methyl]pyrrolidin-2-one], the half-maximal effective concentration (EC50) on TLR7 and at TLR8 was greater than 100 µM throughout.

Take `Nc1nc2cc(C3CCOCC3)ccc2c2[nH]c(CN3CCCC3=O)nc12` [Compound 298, 1-[[4-amino-7-(oxan-4-yl)-1H-imidazo[4,5-c]quinolin-2-yl]methyl]pyrrolidin-2-one]: the EC50 on TLR7 was 1 to 20 µM; at TLR8 it was greater than 100 µM.

Consider `Cc1ccn(-c2ccc3c(c2)nc(N)c2nc(CN4CCCC4=O)[nH]c23)n1` [Compound 301, 1-[[4-amino-7-(3-methylpyrazol-1-yl)-1H-imidazo[4,5-c]quinolin-2-yl]methyl]pyrrolidin-2-one], for which the EC50 at TLR7 and at TLR8 was greater than 100 µM throughout.

Take `Nc1nc2cc(C3CCCCC3)ccc2c2[nH]c(CN3CCCC3=O)nc12` [Compound 302, 1-[(4-amino-7-cyclohexyl-1H-imidazo[4,5-c]quinolin-2-yl)methyl]pyrrolidin-2-one]: the EC50 at TLR7 and at TLR8 was greater than 100 µM each time.

With `CC(c1nc2c(N)nc3cc(Br)ccc3c2[nH]1)N1CCCC1=O` (stereo not shown) [Compound 303, 1-[1-(4-amino-7-bromo-1H-imidazo[4,5-c]quinolin-2-yl)ethyl]pyrrolidin-2-one], the half-maximal effective concentration (EC50) on TLR7 and at TLR8 was 20 to 100 µM in each case.

One may read the EC50 as the midpoint of the concentration-response curve. A higher EC50 goes with lower potency in that assay.
